The record followed here is patent US20150175599A1, “FAAH Inhibitors” (Ironwood Pharmaceuticals, Inc., priority 2010, published 2015).

The data set can be described thus: Pharmacokinetic study, plasma level 2 hours after oral dosing in rats. The class given is in vivo. The method in brief:
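Rats dosed by oral gavage in 1% DMA/99% Vitamin E TPGS; EDTA plasma taken by retro-orbital bleed 2 h post-dose. Acetonitrile precipitation with internal standard, LC/MS/MS quantitation against plasma standards 0.1–3000 ng/mL.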
On to `COc1ccc2c(c1)c(C(=O)C(=O)Nc1ccnc(OC)c1)c(C)n2Cc1ccc(Cl)cn1` [Compound 79, 2-(1-((5-chloropyridin-2-yl)methyl)-5-methoxy-2-methyl-1H-indol-3-yl)-N-(2-methoxypyridin-4-yl)-2-oxoacetamide], for which the “2 hr plasma level-ng/mL (rat, 10 mg/kg PO, 2 hr)” value (“2 hr plasma level-ng/mL” below) is listed as “D (D = greater than 1000 nM)”.
In the case of `COc1ccc2c(c1)c(C(=O)C(=O)Nc1ccnc(OC)c1)c(C)n2Cc1ncc(F)cc1F` [Compound 81, 2-(1-((3,5-difluoropyridin-2-yl)methyl)-5-methoxy-2-methyl-1H-indol-3-yl)-N-(2-methoxypyridin-4-yl)-2-oxoacetamide] it was “D (D = greater than 1000 nM)”; in that of `COc1ccc2c(c1)c(C(=O)C(=O)Nc1ccnc(OC)c1)c(C)n2Cc1ncc(Cl)cc1Cl` [Compound 82, 2-(1-((3,5-dichloropyridin-2-yl)methyl)-5-methoxy-2-methyl-1H-indol-3-yl)-N-(2-methoxypyridin-4-yl)-2-oxoacetamide], “D (D = greater than 1000 nM)”.
In the case of `COc1ccc2c(c1)c(C(=O)C(=O)Nc1ccnc(OC)c1)c(C)n2Cc1ccc(C)cn1` [Compound 84, 2-(5-methoxy-2-methyl-1-((5-methylpyridin-2-yl)methyl)-1H-indol-3-yl)-N-(2-methoxypyridin-4-yl)-2-oxoacetamide] it was “D (D = greater than 1000 nM)”; in that of `COc1cc(NC(=O)C(=O)c2c(C)n(Cc3ccc(F)cn3)c3ccc(C)cc23)ccn1` [Compound 85, 2-(1-((5-fluoropyridin-2-yl)methyl)-2,5-dimethyl-1H-indol-3-yl)-N-(2-methoxypyridin-4-yl)-2-oxoacetamide], “D (D = greater than 1000 nM)”; in that of `COc1ccc2c(c1)c(C(=O)C(=O)Nc1ccnc(OC)c1)c(C)n2Cc1ccc(Cl)nn1` [Compound 86, 2-(1-((6-chloropyridazin-3-yl)methyl)-5-methoxy-2-methyl-1H-indol-3-yl)-N-(2-methoxypyridin-4-yl)-2-oxoacetamide], “D (D = greater than 1000 nM)”.
In the case of `COc1ccc2c(c1)c(C(=O)C(=O)Nc1ccnc(OC)c1)c(C)n2Cc1ncc(Cl)cc1F` [Compound 87, 2-(1-((5-chloro-3-fluoropyridin-2-yl)methyl)-5-methoxy-2-methyl-1H-indol-3-yl)-N-(2-methoxypyridin-4-yl)-2-oxoacetamide] it was “D (D = greater than 1000 nM)”.
With `COc1cc(NC(=O)C(=O)c2c(C)n(Cc3ccc(Cl)cc3)c3cc(F)c(C)cc23)ccn1` [Compound 89, 2-(1-(4-chlorobenzyl)-6-fluoro-2,5-dimethyl-1H-indol-3-yl)-N-(2-methoxypyridin-4-yl)-2-oxoacetamide], the “2 hr plasma level-ng/mL” value was “C (C = between 100 nM and 1000 nM)”.
The result for `COc1cc(NC(=O)C(=O)c2c(C)n(Cc3ccc(Cl)cn3)c3cc(F)c(C)cc23)ccn1` [Compound 90, 2-(1-((5-chloropyridin-2-yl)methyl)-6-fluoro-2,5-dimethyl-1H-indol-3-yl)-N-(2-methoxypyridin-4-yl)-2-oxoacetamide] reads “D (D = greater than 1000 nM)”; that for `COc1cc(NC(=O)C(=O)c2c(C)n(Cc3ccc(Cl)cc3)c3cc(Cl)c(C)cc23)ccn1` [Compound 93, 2-(6-chloro-1-(4-chlorobenzyl)-2,5-dimethyl-1H-indol-3-yl)-N-(2-methoxypyridin-4-yl)-2-oxoacetamide], “C (C = between 100 nM and 1000 nM)”.
For the compound `COc1cc(NC(=O)C(=O)c2c(C)n(Cc3ccc(Cl)cn3)c3cc(Cl)c(C)cc23)ccn1` [Compound 94, 2-(6-chloro-1-((5-chloropyridin-2-yl)methyl)-2,5-dimethyl-1H-indol-3-yl)-N-(2-methoxypyridin-4-yl)-2-oxoacetamide], the “2 hr plasma level-ng/mL” value is on record as “D (D = greater than 1000 nM)”.
